In assay [1] the target is electric eel acetylcholinesterase (type-IV-S) (Electrophorus electricus, UniProt O42275). Put plainly: biochemical. The class given is biochemical.
Assay [2] addresses equine butyrylcholinesterase (Equus caballus, UniProt P81908). Put plainly: Butyrylcholinesterase inhibition. The class given is biochemical.

Read-outs that look alike come from different tables or passages of the source.

equine butyrylcholinesterase, sequence (P81908 whole entry): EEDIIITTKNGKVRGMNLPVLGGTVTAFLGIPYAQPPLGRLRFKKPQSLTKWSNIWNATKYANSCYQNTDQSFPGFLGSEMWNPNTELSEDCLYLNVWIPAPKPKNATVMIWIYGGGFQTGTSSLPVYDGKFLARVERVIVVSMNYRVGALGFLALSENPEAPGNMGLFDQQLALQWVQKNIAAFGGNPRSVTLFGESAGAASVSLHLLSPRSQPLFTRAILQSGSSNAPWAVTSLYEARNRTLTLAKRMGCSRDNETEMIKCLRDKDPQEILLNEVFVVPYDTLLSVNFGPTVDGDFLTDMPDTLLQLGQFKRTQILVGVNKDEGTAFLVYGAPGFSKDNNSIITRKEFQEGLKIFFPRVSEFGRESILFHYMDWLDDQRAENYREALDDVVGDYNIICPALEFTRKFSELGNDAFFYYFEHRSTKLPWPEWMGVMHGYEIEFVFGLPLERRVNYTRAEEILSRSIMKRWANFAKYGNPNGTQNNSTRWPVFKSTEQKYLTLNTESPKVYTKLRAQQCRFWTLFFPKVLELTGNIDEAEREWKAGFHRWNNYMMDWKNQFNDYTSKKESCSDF
electric eel acetylcholinesterase (type-IV-S), sequence (O42275 24-633): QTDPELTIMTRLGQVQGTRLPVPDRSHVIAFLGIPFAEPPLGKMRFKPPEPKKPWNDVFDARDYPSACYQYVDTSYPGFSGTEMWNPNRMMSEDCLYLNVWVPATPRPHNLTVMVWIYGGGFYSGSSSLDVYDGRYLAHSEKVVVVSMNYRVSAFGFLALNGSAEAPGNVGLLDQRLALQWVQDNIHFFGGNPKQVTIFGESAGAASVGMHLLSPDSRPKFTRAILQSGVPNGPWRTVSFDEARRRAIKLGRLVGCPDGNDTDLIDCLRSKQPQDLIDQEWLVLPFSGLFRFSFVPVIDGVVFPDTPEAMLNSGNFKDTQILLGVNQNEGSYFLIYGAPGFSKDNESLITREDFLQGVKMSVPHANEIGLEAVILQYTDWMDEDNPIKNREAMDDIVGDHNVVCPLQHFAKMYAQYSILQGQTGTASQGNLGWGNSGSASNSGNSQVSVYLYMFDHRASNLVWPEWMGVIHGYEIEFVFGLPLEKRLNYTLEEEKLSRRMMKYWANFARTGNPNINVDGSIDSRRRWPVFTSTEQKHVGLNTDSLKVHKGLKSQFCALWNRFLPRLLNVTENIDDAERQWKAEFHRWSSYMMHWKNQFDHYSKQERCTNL

In the case of `CCC/C=N/NC(=O)COc1ccc(Sc2ccc(OCC(=O)N/N=C/CCC)cc2)cc1` [4y, 2,2′-((Thiobis(4,1-phenylene))bis(oxy))bis(N′-((E)-butylidene)acetohydrazide)], the IC50 in assay [1] came to 122.6 ± 0.943 µM; in assay [2] it was 101.1 ± 0.938 µM.

On to “2,2′-((Thiobis(4,1-phenylene))bis(oxy))bis(N′-((E)-4-fluorobenzylidene)acetohydrazide) [4s]”, for which the half-maximal inhibitory concentration (IC50) came to 91.5 ± 0.615 µM in assay [1] (read-out: AChE IC50 (μM) ± SD, NA = not active, galantamine as positive control) and 36.4 ± 0.702 µM in assay [2] (read-out: BChE IC50 (μM) ± SD, NA = not active, galantamine as positive control).

As to `CCCC/C=N/NC(=O)COc1ccc(Sc2ccc(OCC(=O)N/N=C/CCCC)cc2)cc1` [4x, 2,2′-((Thiobis(4,1-phenylene))bis(oxy))bis(N′-((E)-pentylidene)acetohydrazide)], the IC50 in assay [1] stood at 186.3 ± 0.876 µM; in assay [2], 103.1 ± 0.877 µM.

These data come from PMC10448230 (RSC Advances, 2023).
